Test systems include CAKI-1 renal; COLO 205 colon; EKVX NSCLC; HT29 colon; K-562 leukemia; SF-295 CNS; SW-620 colon; UACC-62 melanoma; SNB-19 CNS; UACC-257 melanoma.
Holding throughout (assay): DTP human tumour cell line panel, 48 h

This passage reports TGI and GI50 results from PubChem BioAssay (NCI).

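Grown in 96-well plates, cells were treated for 48 hours with each compound at five concentrations. Insufficient inhibition: endpoint recorded as highest concentration tested. GI50 = concentration required for 50% inhibition of growth. TGI: concentration producing complete growth inhibition.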 Some results are limits rather than exact numbers.

A word on the TGI: it is the concentration at which net growth stops. Read a high TGI as lower sensitivity of the cells. As for `CC(=O)Oc1cc(OC(C)=O)c2cc3c(cc2c1OC(C)=O)C(=O)C1(CCCC1)C3=O`, the TGI stood at 25.2 µM with CAKI-1 renal; 33.9 µM with COLO 205 colon; 38 µM in the assay on EKVX NSCLC; 30 µM in the assay on HT29 colon; 49.3 µM in the assay with K-562 leukemia; 29.9 µM with SF-295 CNS. Besides, the total growth inhibition concentration (TGI) was found to be 39.4 µM with SW-620 colon and 30.2 µM in the assay on UACC-62 melanoma.

Take `CN(Cc1ccccc1)c1nc(=[N+](C)C)ss1`: the total growth inhibition concentration (TGI) with CAKI-1 renal, with EKVX NSCLC, in the assay with HT29 colon, with K-562 leukemia, with SF-295 CNS and in the assay with SNB-19 CNS was over 100 µM throughout. For the same compound, the TGI in the assay with SW-620 colon, in the assay with UACC-257 melanoma and in the assay with UACC-62 melanoma was over 100 µM in each case.

Usually GI50 stands for the concentration at which growth is held to half of that of the control. As for `C#CCOc1cccc(Nc2ncnc3c2ncn3C2CCN(C(=O)CCl)C2)c1` (stereo not drawn), the GI50 in the assay on CAKI-1 renal is 16.8 µM; with EKVX NSCLC it was 26.1 µM; with HT29 colon, 19.4 µM; in the assay with K-562 leukemia it was 25.7 µM; in the assay with SF-295 CNS, over 100 µM; in the assay on SNB-19 CNS, 35.1 µM. Besides, the GI50 was 18.4 µM with SW-620 colon, 26.3 µM with UACC-257 melanoma and 18.1 µM in the assay with UACC-62 melanoma. In addition, the TGI is 30.7 µM in the assay on CAKI-1 renal; 74.2 µM in the assay on EKVX NSCLC; 37.4 µM with HT29 colon; over 100 µM in the assay with K-562 leukemia; over 100 µM with SF-295 CNS; over 100 µM with SNB-19 CNS. Also, the total growth inhibition concentration (TGI) with SW-620 colon was 39.1 µM; with UACC-257 melanoma it was 79.2 µM; in the assay with UACC-62 melanoma, 35.4 µM.

As to `COc1cc2c(cc1-c1c(C)noc1C)ncc1[nH]c(=O)n([C@H](C)c3ccccn3)c12`, the GI50 is 0.0939 µM in the assay with CAKI-1 renal; 0.241 µM with COLO 205 colon; 0.244 µM in the assay on HT29 colon; 0.75 µM with K-562 leukemia; 0.649 µM in the assay on SF-295 CNS; 1.16 µM with SNB-19 CNS. The GI50 in the assay with SW-620 colon is 28.1 µM; with UACC-257 melanoma it was 0.415 µM; in the assay on UACC-62 melanoma, 0.145 µM. The concentration for total growth inhibition (TGI) with CAKI-1 renal was over 100 µM; in the assay on COLO 205 colon, over 35.6 µM; in the assay with HT29 colon, over 100 µM; with K-562 leukemia it was over 100 µM; in the assay with SF-295 CNS it was 57.4 µM; with SNB-19 CNS it was over 100 µM. Also, the TGI in the assay on SW-620 colon is over 100 µM; in the assay on UACC-257 melanoma, over 100 µM; in the assay with UACC-62 melanoma it was over 87.2 µM.

Consider `C=C(CN(CCN1CCOCC1)CC(=C)c1ccc(C(=O)Nc2ccccc2N)cc1)c1ccc(C(=O)Nc2ccccc2N)cc1`, for which the GI50 was 9.45 µM with CAKI-1 renal; 8.21 µM in the assay on COLO 205 colon; 14 µM with EKVX NSCLC; 28.1 µM in the assay on K-562 leukemia; 8.46 µM in the assay with SF-295 CNS; 9.18 µM in the assay on SNB-19 CNS. Further, the GI50 in the assay on SW-620 colon was 8.71 µM; in the assay on UACC-257 melanoma, 3.68 µM; with UACC-62 melanoma, 2.48 µM. Besides, the total growth inhibition concentration (TGI) in the assay on CAKI-1 renal is 34.6 µM; in the assay on COLO 205 colon it was 20.2 µM; in the assay with EKVX NSCLC, over 50 µM; in the assay on K-562 leukemia, over 50 µM; with SF-295 CNS it was 19.9 µM; with SNB-19 CNS, 33.4 µM. The TGI in the assay with SW-620 colon stood at 38.5 µM; with UACC-257 melanoma, 13.5 µM; in the assay with UACC-62 melanoma, 10.6 µM.

As to `Cc1[nH]ccc2cc3nc4ccccc4c3cc12`, the GI50 is 2.38 µM in the assay with CAKI-1 renal; 2.35 µM in the assay with COLO 205 colon; 1.16 µM in the assay on HT29 colon; 2.8 µM in the assay with K-562 leukemia; 1.96 µM in the assay with SF-295 CNS; 5.65 µM in the assay on SNB-19 CNS. The GI50 is 1.07 µM in the assay with SW-620 colon, 3.35 µM in the assay on UACC-257 melanoma and 3.52 µM in the assay on UACC-62 melanoma. Further, the concentration for total growth inhibition (TGI) was 10.8 µM with CAKI-1 renal; 7.15 µM in the assay with COLO 205 colon; 3.55 µM with HT29 colon; 10.4 µM in the assay with K-562 leukemia; 6.79 µM in the assay on SF-295 CNS; 19.6 µM in the assay with SNB-19 CNS. The TGI was determined as 6.9 µM with SW-620 colon, 12.8 µM with UACC-257 melanoma and 12.3 µM in the assay with UACC-62 melanoma.

Take `Cn1c(=O)c2[nH]cnc2n(CC(=O)O)c1=O`: the concentration for total growth inhibition (TGI) with CAKI-1 renal, with COLO 205 colon, with EKVX NSCLC, in the assay with HT29 colon, in the assay on K-562 leukemia and in the assay with SNB-19 CNS was over 100 µM each time. The TGI in the assay with SW-620 colon and in the assay on UACC-62 melanoma was over 100 µM in each case.

For the compound `O=C(O)C1=C(Cl)c2ccccc2S1(=O)=O`, the TGI with CAKI-1 renal, in the assay on COLO 205 colon, in the assay with EKVX NSCLC, in the assay on K-562 leukemia, in the assay on SF-295 CNS and in the assay on SNB-19 CNS was over 100 µM each time. The concentration for total growth inhibition (TGI) in the assay with SW-620 colon, in the assay with UACC-257 melanoma and with UACC-62 melanoma was over 100 µM in each case.

`NC(=O)C12CCC1C1CCCCC12N1CCOCC1` (stereo not drawn): the TGI in the assay with CAKI-1 renal, with EKVX NSCLC, in the assay with HT29 colon, in the assay on K-562 leukemia, with SF-295 CNS and in the assay on SNB-19 CNS was over 100 µM each time. The concentration for total growth inhibition (TGI) in the assay on SW-620 colon and with UACC-62 melanoma was over 100 µM throughout.

For `COc1ccc(-c2cc3nccn3c(Nc3ncccc3C(N)=O)n2)cc1OC`, the 50% growth inhibitory concentration (GI50) in the assay on CAKI-1 renal is 0.274 µM; in the assay with COLO 205 colon, 1.21 µM; with HT29 colon it was 1.19 µM; with K-562 leukemia it was 4.59 µM; with SF-295 CNS, over 100 µM; in the assay on SNB-19 CNS, over 100 µM. For the same compound, the GI50 with SW-620 colon was 2.34 µM; in the assay on UACC-257 melanoma it was over 100 µM; in the assay with UACC-62 melanoma, 0.742 µM. The TGI in the assay on CAKI-1 renal, with COLO 205 colon, in the assay with HT29 colon, in the assay with K-562 leukemia, with SF-295 CNS and with SNB-19 CNS was over 100 µM throughout. In addition, the TGI in the assay with SW-620 colon, with UACC-257 melanoma and with UACC-62 melanoma was over 100 µM in each case.

On to `COc1ccc2c(c1)Cc1c-2[nH]c2cc3c(cc2c1=O)OCO3`, for which the TGI in the assay on CAKI-1 renal was over 100 µM; in the assay on COLO 205 colon it was 25.5 µM; with EKVX NSCLC, over 100 µM; with HT29 colon it was 19.9 µM; in the assay on K-562 leukemia it was over 100 µM; in the assay with SF-295 CNS, 51.7 µM. The TGI was over 100 µM in the assay with SNB-19 CNS, over 100 µM with SW-620 colon and 22.8 µM in the assay on UACC-62 melanoma.

As for `CC(C)[C@H](O)C(=O)N[C@H]1Cc2ccc3c(c2)[C@]24C5=C(N=C(O5)[C@H](C(C)C)NC1=O)c1nc(Cl)c(o1)-c1c(Cl)[nH]c5cccc(c15)-c1cccc2c1N[C@H]4O3`, the GI50 in the assay with CAKI-1 renal is 0.00468 µM; with HT29 colon, under 0.001 µM; in the assay with K-562 leukemia, under 0.001 µM; with SF-295 CNS, under 0.001 µM; in the assay on SNB-19 CNS, under 0.001 µM; in the assay on SW-620 colon, 0.0017 µM. Moreover, the GI50 in the assay on UACC-257 melanoma is under 0.001 µM. Moreover, the total growth inhibition concentration (TGI) in the assay with CAKI-1 renal was 3.29 µM; in the assay with EKVX NSCLC, over 10 µM; in the assay on HT29 colon it was 0.183 µM; in the assay with K-562 leukemia it was over 10 µM; in the assay with SF-295 CNS, 3.87 µM; with SW-620 colon, over 10 µM. The compound further registered a TGI with UACC-257 melanoma of 3.27 µM.

In the case of `N#CNc1nc(C(=O)Nc2ccc(Cl)cc2)cc(-c2ccccc2)n1`, the TGI in the assay with CAKI-1 renal, in the assay on EKVX NSCLC, with HT29 colon, in the assay with K-562 leukemia, in the assay on SF-295 CNS and in the assay on SNB-19 CNS was over 100 µM throughout. Besides, the TGI in the assay with SW-620 colon, with UACC-257 melanoma and with UACC-62 melanoma was over 100 µM in each case.

Take `CO[C@H]1/C=C/C[C@H](C)[C@@H](C)S(=O)(=O)NC(=O)c2ccc3c(c2)N(C[C@@H]2CC[C@H]21)C[C@@]1(CCCc2cc(Cl)ccc21)CO3`: the GI50 in the assay with CAKI-1 renal is 3.45 µM; in the assay on COLO 205 colon, 2.7 µM; in the assay with EKVX NSCLC it was 1.91 µM; with HT29 colon, 2.13 µM; in the assay with SF-295 CNS, 1.97 µM; in the assay with SNB-19 CNS, 3.45 µM. The GI50 is 2.84 µM in the assay on SW-620 colon, 2.99 µM in the assay on UACC-257 melanoma and 0.659 µM in the assay on UACC-62 melanoma. Moreover, the concentration for total growth inhibition (TGI) in the assay on CAKI-1 renal was 12.9 µM; in the assay with COLO 205 colon, 6.6 µM; with EKVX NSCLC, 6.76 µM; in the assay on HT29 colon, 5.16 µM; in the assay with SF-295 CNS, 6.05 µM; in the assay with SNB-19 CNS, 14.1 µM. Also, the concentration for total growth inhibition (TGI) in the assay on SW-620 colon was found to be 10.3 µM; in the assay with UACC-257 melanoma, 9.69 µM; in the assay on UACC-62 melanoma, 2.46 µM.

As for `C=CC1=C(C)C(Cc2[nH]c(/C=c3\[nH]/c(=C/C4=NC(=O)C(C)/C4=C\C)c(C)c3CCC(=O)O)c(CCC(=O)OC)c2C)NC1=O` (stereo not drawn), the GI50 was 46.3 µM with CAKI-1 renal; 20.2 µM with COLO 205 colon; 47.7 µM in the assay on EKVX NSCLC; 25.7 µM in the assay on K-562 leukemia; 37.8 µM in the assay with SF-295 CNS; 25.4 µM in the assay with SW-620 colon. Besides, the GI50 with UACC-257 melanoma is 7.9 µM; in the assay on UACC-62 melanoma, 18.7 µM. For the same compound, the TGI was over 100 µM in the assay on CAKI-1 renal; 36.3 µM with COLO 205 colon; over 100 µM in the assay on EKVX NSCLC; 61.9 µM in the assay with K-562 leukemia; over 100 µM in the assay with SF-295 CNS; 61.4 µM in the assay with SW-620 colon. Besides, the total growth inhibition concentration (TGI) came out at 41.1 µM in the assay with UACC-257 melanoma and 35.9 µM in the assay with UACC-62 melanoma.
